Where two headings read alike, the source gives them in different places.
Columns and labels:
human PDE-5A1 = human PDE-5A1 (Homo sapiens (Human), UniProt O76074); test: Human PDE-5A1 inhibition assay (fluorescence polarization, FAM-cGMP); format: biochemical; settings: human PDE5A1, 100 nM FAM-cGMP, 60 minutes room temperature
Source text: This example illustrates the in vitro inhibition of human PDE-5A1 by exemplary compounds of this disclosure (e.g., as described herein).
Sildenafil citrate (Catalog no. LKT-S3313, Axxora, San Diego, CA), Vardenafil hydrochloride trihydrate (Catalog no. SML2103, Sigma-Aldrich, St. Louis, MO), PDE Assay Buffer (Catalog no. 60393, BPS bioscience, San Diego, CA), PDE Binding Agent (Catalog no. 60390, BPS bioscience, San Diego, CA) and PDE Binding Agent Diluent (cGMP, Catalog no. 60392, BPS bioscience, San Diego, CA) were used for assays. Test compounds were supplied by Ildong Pharmaceuticals Co., Ltd.
The serial dilution of the compounds was first performed in 100% DMSO with the highest concentration at 1 mM and 0.1 mM. Each intermediate compound dilution (in 100% DMSO) will then get directly diluted 10× fold into assay buffer for 10% DMSO and 5 μL of the dilution was added to a 50 μL reaction so that the final concentration of DMSO is 1% in all reactions.
The enzymatic reactions were conducted at room temperature for 60 minutes in a 50 μL mixture containing PDE assay buffer, 100 nM FAM-cGMP, a PDE enzyme (Table 2) and the test compounds.
After enzymatic reaction, 100 μL of a binding solution (1:100 dilution of the binding agent with the binding agent diluent) was added to each reaction and the reaction was performed at room temperature for 60 minutes.
Fluorescence intensity was measured at excitation of 485 nm and an emission of 528 nm using a Tecan Infinite M1000 microplate reader.
PDE activity assays were performed in duplicate at each concentration. Fluorescence intensity is converted to fluorescence polarization using the Tecan Magellan6 software. The fluorescence polarization (FPt) in absence of the compound in each data set was defined as 100% activity. In the absence of PDE and the compound, the value fluorescent polarization (FPb) in each data set was defined as 0% activity. The percent activity in the presence of compound was calculated according to Equation 1:
[formula] where FP=the fluorescence polarization in the presence of the compound.
The values of % activity versus a series of compound concentrations were then plotted using non-linear regression analysis of Sigmoidal dose-response curve generated with Equation 2:
[formula] where Y=percent activity, B=minimum percent activity, T=maximum percent activity, X=logarithm of compound, and Hill Slope=slope factor or Hill coefficient. The IC50 value was determined by the concentration causing a half-maximal percent activity. Results

Human androgen receptors = Human androgen receptors (Homo sapiens (Human), UniProt P10275, T878A); test: Androgen receptor (AR) radioligand binding assay
Protocol: Methods employed in this study have been adapted from the following literature procedure.
Human androgen receptors obtained from human LNCaP cells are used in modified HEPES buffer pH 7.4. […] Non-specific binding is estimated in the presence of 1 μM testosterone. […] (See, e.g., Traish, A. M et al., Binding of 7α, 17α-dimethyl-19-nortestosterone (Mibolerone) to androgen and progesterone receptors in human and animal tissues. Endocrinology. 118(4): 1327-1333, 1986).
Compounds are screened at 10 μM.
Where presented, IC50 values were determined by a non-linear, least squares regression analysis using MathIQ™ (ID Business Solutions Ltd., UK).

androgen receptor (AR) = androgen receptor (AR) (Homo sapiens (Human), UniProt P10275); test: Androgen receptor (AR) reporter assay, antagonist screen activated by R1881; format: cell-based; settings: AR-UAS-bla GripTite 293 cells, antagonist mode, R1881 at EC80
Protocol: The protocols and results of this Example were carried out and obtained by Thermofisher Scientific.
Test compounds were received at 1000× (or greater) of the desired starting concentration in 100% DMSO. If compounds were supplied at greater that 1000× concentration, an initial dilution is made in 100% DMSO to bring the compounds to 1000× concentration. The 1000× test compounds were serially diluted (10 point ½-log increments) in 100% DMSO.
The Substrate Loading Solution consists of three Life Technologies reagents: Solution A (10 mM LiveBLAzer™-FRET B/G Substrate), Solution B and Solution C.
Androgen Receptor (AR)—Antagonist Screen, Activated by R1881
AR-UAS-bla GripTite™ 293 cells were thawed and resuspended in Assay Media (DMEM phenol red free, 2% CD-treated FBS, 0.1 mM NEAA, 1 mM Sodium Pyruvate, 100 U/mL/100 μg/mL Pen/Strep) to a concentration of 312,500 cells/mL. 4 μL of a 10× serial dilution of Cyproterone Acetate (control antagonist starting concentration, 3,160 nM) or compounds are added to appropriate wells of a Poly-D-Lysine assay plate. 32 μL of cell suspension was added to the wells and pre-incubated at 37° C./5% CO2 in a humidified incubator with compounds and control antagonist titration for 30 minutes. 4 μL of 10× control agonist R1881 at the pre-determined EC80 concentration was added to wells containing the control antagonist or compounds. The plate was incubated for 16-24 hours at 37° C./5% CO2 in a humidified incubator. 8 μL of 1 μM Substrate Loading Solution is added to each well and the plate was incubated for 2 hours at room temperature. The plate was read on a fluorescence plate reader (Tecan Safire^2).

[1] = receptors from human LNCaP cells, 0.5 nM [3H]Methyltrienolone, 20 hours at 4° C., read-out: AR IC50

Sequence of androgen receptor (AR) (P10275 other isoform, or with tags, fused parts or gaps): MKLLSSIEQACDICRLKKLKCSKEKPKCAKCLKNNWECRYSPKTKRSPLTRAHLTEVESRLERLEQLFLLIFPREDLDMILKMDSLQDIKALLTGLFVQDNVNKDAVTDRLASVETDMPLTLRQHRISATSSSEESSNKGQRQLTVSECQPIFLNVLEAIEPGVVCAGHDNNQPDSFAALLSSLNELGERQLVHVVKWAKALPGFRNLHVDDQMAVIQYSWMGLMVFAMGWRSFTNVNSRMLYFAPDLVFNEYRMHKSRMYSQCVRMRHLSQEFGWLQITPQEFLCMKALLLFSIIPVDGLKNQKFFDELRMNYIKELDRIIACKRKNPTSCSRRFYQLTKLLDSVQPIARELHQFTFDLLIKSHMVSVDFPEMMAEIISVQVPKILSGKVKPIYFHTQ
Sequence of Human androgen receptors (P10275 whole entry T878A): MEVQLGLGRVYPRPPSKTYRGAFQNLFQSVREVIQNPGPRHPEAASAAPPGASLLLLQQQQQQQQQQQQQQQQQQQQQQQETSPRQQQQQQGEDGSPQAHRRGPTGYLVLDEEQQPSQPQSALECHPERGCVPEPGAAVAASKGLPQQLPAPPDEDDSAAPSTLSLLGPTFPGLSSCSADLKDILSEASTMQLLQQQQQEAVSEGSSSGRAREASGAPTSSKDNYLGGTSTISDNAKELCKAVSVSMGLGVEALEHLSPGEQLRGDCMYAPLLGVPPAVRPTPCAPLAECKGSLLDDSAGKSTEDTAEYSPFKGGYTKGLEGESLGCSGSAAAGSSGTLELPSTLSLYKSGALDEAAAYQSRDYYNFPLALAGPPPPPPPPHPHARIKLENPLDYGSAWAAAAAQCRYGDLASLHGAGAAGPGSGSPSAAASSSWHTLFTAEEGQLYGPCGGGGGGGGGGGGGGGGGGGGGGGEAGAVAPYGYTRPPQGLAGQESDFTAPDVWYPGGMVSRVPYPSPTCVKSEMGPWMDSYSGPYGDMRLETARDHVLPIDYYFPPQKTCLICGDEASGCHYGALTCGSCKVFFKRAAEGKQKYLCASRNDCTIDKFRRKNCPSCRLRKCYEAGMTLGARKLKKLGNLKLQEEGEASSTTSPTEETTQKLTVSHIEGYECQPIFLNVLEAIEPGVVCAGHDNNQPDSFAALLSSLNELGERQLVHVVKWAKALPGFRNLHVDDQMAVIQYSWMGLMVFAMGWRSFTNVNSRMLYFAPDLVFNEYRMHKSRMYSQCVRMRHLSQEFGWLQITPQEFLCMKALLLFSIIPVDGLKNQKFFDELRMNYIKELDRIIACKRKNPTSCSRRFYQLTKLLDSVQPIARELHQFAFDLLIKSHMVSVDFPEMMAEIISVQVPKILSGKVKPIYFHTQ

IC50 (Human androgen receptors; read-out: AR IC50) [nM] | Compound | IC50 (human PDE-5A1) [nM] | IC50 (Human androgen receptors; [1]) [nM] | IC50 (androgen receptor (AR)) [nM] | IC50 (Human androgen receptors) [nM]
– | CCCc1nc(C)c2c(=O)[nH]c(-c3cc(N4C(=S)N(c5ccc(C#N)c(C(F)(F)F)c5)C(=O)C4(C)C)ccc3OCC)nn12 [Compound 18, 4-(3-(4-ethoxy-3-(5-methyl-4-oxo-7-propyl-3,4-dihydroimidazo[5,1-f][1,2,4]triazin-2-yl)phenyl)-4,4-dimethyl-5-oxo-2-thioxoimidazolidin-1-yl)-2-(trifluoromethyl)benzonitrile] | ≤ 10 | < 50 | ≤ 500 | –
– | CCCc1nn(C)c2c(=O)[nH]c(-c3cc(N4C(=S)N(c5cnc(C#N)c(C(F)(F)F)c5)C(=O)C4(C)C)ccc3OCC)nc12 [Compound 19, 5-(3-(4-ethoxy-3-(1-methyl-7-oxo-3-propyl-6,7-dihydro-1H-pyrazolo[4,3-d]pyrimidin-5-yl)phenyl)-4,4-dimethyl-5-oxo-2-thioxoimidazolidin-1-yl)-3-(trifluoromethyl)picolinonitrile] | > 100 | > 200 | 500 to 1000 | –
50 to 200 | CCCc1nc(C)c2c(=O)[nH]c(-c3cc(N4C(=S)N(c5cnc(C#N)c(C(F)(F)F)c5)C(=O)C4(C)C)ccc3OCC)nn12 [Compound 20, 5-(3-(4-ethoxy-3-(5-methyl-4-oxo-7-propyl-3,4-dihydroimidazo[5,1-f][1,2,4]triazin-2-yl)phenyl)-4,4-dimethyl-5-oxo-2-thioxoimidazolidin-1-yl)-3-(trifluoromethyl)picolinonitrile] | ≤ 10 | – | ≤ 500 | –
– | CCCc1nn(C)c2c(=O)[nH]c(-c3cc(N4C(=S)N(c5ccc(C#N)c(C(F)(F)F)c5)C(=O)C45CCC5)ccc3OCC)nc12 [Compound 21, 4-(5-(4-ethoxy-3-(1-methyl-7-oxo-3-propyl-6,7-dihydro-1H-pyrazolo[4,3-d]pyrimidin-5-yl)phenyl)-8-oxo-6-thioxo-5,7-diazaspiro[3.4]octan-7-yl)-2-(trifluoromethyl)benzonitrile] | > 100 | > 200 | ≤ 500 | –
– | CCCc1nc(C)c2c(=O)[nH]c(-c3cc(N4C(=S)N(c5ccc(C#N)c(C(F)(F)F)c5)C(=O)C45CCC5)ccc3OCC)nn12 [Compound 22, 4-(5-(4-ethoxy-3-(5-methyl-4-oxo-7-propyl-3,4-dihydroimidazo[5,1-f][1,2,4]triazin-2-yl)phenyl)-8-oxo-6-thioxo-5,7-diazaspiro[3.4]octan-7-yl)-2-(trifluoromethyl)benzonitrile] | ≤ 10 | – | ≤ 500 | 50 to 200
– | CCCc1nn(C)c2c(=O)[nH]c(-c3cc(N4C(=S)N(c5cnc(C#N)c(C(F)(F)F)c5)C(=O)C45CCC5)ccc3OCC)nc12 [Compound 23, 5-(5-(4-ethoxy-3-(1-methyl-7-oxo-3-propyl-6,7-dihydro-1H-pyrazolo[4,3-d]pyrimidin-5-yl)phenyl)-8-oxo-6-thioxo-5,7-diazaspiro[3.4]octan-7-yl)-3-(trifluoromethyl)picolinonitrile] | > 100 | > 200 | ≤ 500 | –
– | CCCc1nc(C)c2c(=O)[nH]c(-c3cc(N4C(=S)N(c5ccc(C#N)c(C(F)(F)F)c5)C(=O)C4C)ccc3OCC)nn12 (stereo not drawn) [Compound 26, 4-(3-(4-ethoxy-3-(5-methyl-4-oxo-7-propyl-3,4-dihydroimidazo[5,1-f][1,2,4]triazin-2-yl)phenyl)-4-methyl-5-oxo-2-thioxoimidazolidin-1-yl)-2-(trifluoromethyl)benzonitrile] | ≤ 10 | > 200 | > 100 | –
– | CCCc1nc(C)c2c(=O)[nH]c(-c3cc(S(=O)(=O)NC4CN(c5ccc(C#N)c(C(F)(F)F)c5)C4)ccc3OCC)nn12 [Compound 29, N-(1-(4-cyano-3-(trifluoromethyl)phenyl)azetidin-3-yl)-4-ethoxy-3-(5-methyl-4-oxo-7-propyl-3,4-dihydroimidazo[5,1-f][1,2,4]triazin-2-yl)benzenesulfonamide] | ≤ 10 | – | 500 to 1000 | 50 to 200
– | CCCc1nc(C)c2c(=O)[nH]c(-c3cc(S(=O)(=O)NC4CCN(c5ccc(C#N)c(C(F)(F)F)c5)CC4)ccc3OCC)nn12 [Compound 30, N-(1-(4-cyano-3-(trifluoromethyl)phenyl)piperidin-4-yl)-4-ethoxy-3-(5-methyl-4-oxo-7-propyl-3,4-dihydroimidazo[5,1-f][1,2,4]triazin-2-yl)benzenesulfonamide] | ≤ 10 | < 50 | ≤ 500 | –
– | CCCc1nc(C)c2c(=O)[nH]c(-c3cc(S(=O)(=O)NC4CCN(c5ccc(C#N)c(C(F)(F)F)c5)C4)ccc3OCC)nn12 (stereo not drawn) [Compound 31, N-(1-(4-cyano-3-(trifluoromethyl)phenyl)pyrrolidin-3-yl)-4-ethoxy-3-(5-methyl-4-oxo-7-propyl-3,4-dihydroimidazo[5,1-f][1,2,4]triazin-2-yl)benzenesulfonamide] | ≤ 10 | – | 500 to 1000 | 50 to 200
– | CCCc1nc(C)c2c(=O)[nH]c(-c3cc(S(=O)(=O)NC4CCN(c5ccc(C#N)c(C(F)(F)F)c5)C4=O)ccc3OCC)nn12 (stereo not drawn) [Compound 32, N-(1-(4-cyano-3-(trifluoromethyl)phenyl)-2-oxopyrrolidin-3-yl)-4-ethoxy-3-(5-methyl-4-oxo-7-propyl-3,4-dihydroimidazo[5,1-f][1,2,4]triazin-2-yl)benzenesulfonamide] | ≤ 10 | > 200 | > 100 | –
– | CCCc1nc(C)c2c(=O)[nH]c(-c3cc(S(=O)(=O)NC4CC(=O)N(c5ccc(C#N)c(C(F)(F)F)c5)C4)ccc3OCC)nn12 (stereo not drawn) [Compound 33, N-(1-(4-cyano-3-(trifluoromethyl)phenyl)-5-oxopyrrolidin-3-yl)-4-ethoxy-3-(5-methyl-4-oxo-7-propyl-3,4-dihydroimidazo[5,1-f][1,2,4]triazin-2-yl)benzenesulfonamide] | ≤ 10 | > 200 | > 100 | –
– | CCCc1nc(C)c2c(=O)[nH]c(-c3cc(N4C(=S)N(c5ccc(C#N)c(C(F)(F)F)c5)C(=O)C45CCOC5)ccc3OCC)nn12 (stereo not drawn) [Compound 34, 4-(1-(4-ethoxy-3-(5-methyl-4-oxo-7-propyl-3,4-dihydroimidazo[5,1-f][1,2,4]triazin-2-yl)phenyl)-4-oxo-2-thioxo-7-oxa-1,3-diazaspiro[4.4]nonan-3-yl)-2-(trifluoromethyl)benzonitrile] | ≤ 10 | – | ≤ 500 | 50 to 200

From patent US11787812B2, “Substituted pyrazolo[4,3-d]pyrimidines and imidazo[5,1 -f][1,2,4]triazines as androgen receptor and phosphodiesterase dual inhibitors” (ILDONG PHARMACEUTICAL CO., LTD., priority 2020, dated 2023)
